Key:
[1] = tested on: HR^+ breast cancer cell lines; conditions: several HR^+ breast cancer cell lines; cited from earlier work
[2] = tested on: gene expression in MDA-MB468 cells; assay: Gene expression profiling via RNA-seq (DESeq2, linear model), MDA-MB468; type: cell-based; conditions: four hours, JQ1 125 nM, Compound 1 25 nM
Description: (§1) In addition, we compared the ability of JQ1 alone, Compound 1 alone, and a combination of JQ1 and Compound 1 to modify expression of various genes in two breast cancer cell lines. Two triple-negative breast cancer cell lines (HCC70 and MDA-MB468) were tested. The cell lines were treated with JQ1, Compound 1, the JQ1/Compound 1 combination, or DMSO for four hours, after which gene expression profiling via RNA-seq was performed. JQ1 was administered to the cells at a 125 nM final concentration in both single agent and combination experiments. Compound 1 was administered to the cells at a 25 nM final concentration in both single agent and combination experiments. Each experiment was performed in triplicate. One replicate of MDA-MB-468 treated with single-agent JQ1 was excluded from further analysis due to quality.
(§2) We employed DESeq2 (Love et al., Genome Biology, 15(12):550, 2014) to identify changes in gene expression due to the JQ1, Compound 1, and JQ1-Compound 1 combination treatment compared to the control DMSO condition based on the RNA-seq data. Genes resulting in a p-value below 0.01 and an absolute logFoldChange above 0.5 were considered to be differentially expressed. […] The same is true for 1459 of 2414 genes in MDA-MB468.
(§3) To identify the genes whose expression is impacted synergistically by the drug combination, we modeled the effect of each drug treatment on expression using a linear model. The expression of each gene after the combination treatment can be thought of as the combined impact of Compound 1, JQ1, and any synergistic interaction between the drug treatments on baseline gene expression. A linear model used to describe this relationship could therefore be represented as:
(§4) Gene Expression after combination treatment=Baseline Expression+Compound 1 effect+JQ1 effect+Combination effect (Synergistic Impact)
(§5) By fitting the expression data for each gene using this model, we were able to evaluate the effect of each treatment, and identify cases where a synergistic interaction between Compound 1 and JQ1 impacts final gene expression. After fitting the linear model to each gene, the weight and p-value of each term can be evaluated. The combination term's weight signifies the mean change resulting from a synergetic impact on expression, with a negative weight indicating synergistic downregulation. Its associated p-value represents the probability that the combination term is not relevant to final gene expression. Using this approach, we identified 1806 genes in HCC70 and 2205 genes in MDA-MB468 whose expression change in the combination treatment was synergistic and whose associated p-value was less than a threshold cutoff of 0.01. The expression of these synergistic genes could not be explained by an additive effect of Compound 1 and JQ1 alone.

[3] = tested on: gene expression in HCC70 cells; assay: Gene expression profiling via RNA-seq (DESeq2, linear model), HCC70; type: cell-based; conditions: four hours, JQ1 125 nM, Compound 1 25 nM
Description: as §1, §2, §3, §4, §5

Row | SMILES | In vitro synergy with fulvestrant [1] | Average Expression (TPM) FOXC1 ([2]; DMSO 33.731) | Average Expression (TPM) GATA3 ([2]; DMSO 34.244) | Average Expression (TPM) TGIF1 ([2]; DMSO 145.88) | Average Expression (TPM) GATA3 ([3]; DMSO 32.685) | Average Expression (TPM) FOXC1 ([3]; DMSO 40.481) | Average Expression (TPM) TGIF1 ([3]; DMSO 62.523)
1 | CN(C)C/C=C/C(=O)Nc1ccc(C(=O)Nc2cccc(Nc3ncc(Cl)c(-c4c[nH]c5ccccc45)n3)c2)cc1 [THZ-1] | synergy |  |  |  |  |  | 
2 | Cc1sc2c(c1C)C(c1ccc(Cl)cc1)=N[C@@H](CC(=O)OC(C)(C)C)c1nnc(C)n1-2 [JQ1, reference compound] |  | 37.112 TPM | 32.491 TPM | 151.60 TPM | 29.574 TPM | 40.529 TPM | 52.509 TPM
